Where a name gives a salt, the structure may show the parent alone.
tested on: HXB2-strain of HIV; assay: Antiviral assay: protection of HIV-infected MT4 cells from virus-mediated cell death (MTT); format: cell-based; settings: Human immunodeficiency virus 1, HXB2, MT4, 120 h, read-out: Antiviral Assay IC50
Description: Anti-HIV antiviral activity was assessed using an adaptation of the method of Pauwels et al. (J. Virol. Methods 1988 20:309-321). The method is based on the ability of compounds to protect HIV-infected T lymphoblastoid cells (MT4 cells) from cell-death mediated by the infection. The endpoint of the assay was calculated as the concentration of compound at which the cell viability of the culture was preserved by 50% (‘50% inhibitory concentration’, IC50). The cell viability of a culture was determined by the uptake of soluble, yellow 3-[4,5-dimethylthiazol-2-yl]-2,5-diphenyltetrazolium bromide (MTT) and its reduction to a purple insoluble formazan salt. After solubilization, spectrophotometric methods were employed to measure the amount of formazan product. […]
A fresh solution of 5 mg/mL MTT was prepared in 0.01 M phosphate buffered saline, pH 7.2 and 20 microliters added to each culture. […] When the formazan deposit was fully solubilized by further mixing, the absorbance (OD) of the cultures was measured at 540 nm and 690 nm wavelength (690 nm readings were used as blanks for artifacts between wells). The percent protection for each treated culture was then calculated from the equation: […]

Structure (SMILES)	IC50
Cn1c(COc2ccc(Cl)c(Oc3cc(Cl)cc(C#N)c3)c2F)n[nH]c1=O [Compound I-2, 3-Chloro-5-[6-chloro-2-fluoro-3-(4-methyl-5-oxo-4,5-dihydro-1H-[1,2,4]triazol-3-ylmethoxy)-phenoxy]-benzonitrile; formate salt]	1.5 nM
Cn1c(COc2ccc(Br)c(Oc3cc(C#N)cc(C(F)F)c3)c2F)n[nH]c1=O [Compound I-4, 3-[6-Bromo-2-fluoro-3-(4-methyl-5-oxo-4,5-dihydro-1H-[1,2,4]triazol-3-ylmethoxy)-phenoxy]-5-difluoromethyl-benzonitrile; trifluoro-acetic acid salt]	0.7 nM

tested on: not given; assay: not given; settings: not given

Structure (SMILES)	melting point
Cn1c(COc2ccc(Cl)c(Oc3cc(Cl)cc(C#N)c3)c2F)n[nH]c1=O (as salt: salt) [Compound I-2, 3-Chloro-5-[6-chloro-2-fluoro-3-(4-methyl-5-oxo-4,5-dihydro-1H-[1,2,4]triazol-3-ylmethoxy)-phenoxy]-benzonitrile; formate salt]	221 to 225 °C
CCc1ccc(OCc2n[nH]c(=O)n2C)c(F)c1Oc1cc(Cl)cc(C#N)c1	179 to 180 °C
Cn1c(COc2ccc(Br)c(Oc3cc(Cl)cc(C#N)c3)c2)n[nH]c1=O	95.2 to 100.7 °C
Cn1c(CCc2ccc(Br)c(F)c2Oc2cc(Cl)cc(C#N)c2)n[nH]c1=O	212.4 to 214.2 °C
Cn1c(CCc2ccc(Br)c(Oc3cc(Cl)cc(C#N)c3)c2F)n[nH]c1=O	186 to 187 °C
CCc1ccc(OCc2n[nH]c(=O)n2C)c(Oc2cc(C#N)cc(C(F)F)c2)c1F	160 to 161 °C
CCc1ccc(OCc2n[nH]c(=O)n2C)c(Oc2cc(C#N)cc(C3CC3)c2)c1F	166 to 168 °C
Cn1c(COc2ccc(Br)c(F)c2Oc2cc(C#N)cc(C(F)F)c2)n[nH]c1=O	193 to 194 °C
Cn1c(COc2ccc(Cl)c(Oc3cc(Cl)cc(C#N)c3)c2Cl)n[nH]c1=O	224.4 to 225.6 °C
Cn1c(COc2ccc(Cl)cc2Oc2cc(Cl)cc(C#N)c2)n[nH]c1=O	176 to 177 °C
Cn1c(COc2ccc(Cl)c(Oc3cc(C#N)cc(C(F)F)c3)c2F)n[nH]c1=O	184.5 to 185.3 °C
Cn1c(COc2ccc(Br)c(F)c2Oc2cc(Cl)cc(C#N)c2)n[nH]c1=O	192.5 to 193 °C
Cn1c(COc2ccc(Br)c(Oc3cc(C#N)cc(C(F)F)c3)c2F)n[nH]c1=O (as salt: salt) [Compound I-4, 3-[6-Bromo-2-fluoro-3-(4-methyl-5-oxo-4,5-dihydro-1H-[1,2,4]triazol-3-ylmethoxy)-phenoxy]-5-difluoromethyl-benzonitrile; trifluoro-acetic acid salt]	199.2 to 201 °C
Cn1c(COc2ccc(Cl)cc2C(=O)c2cc(Cl)cc(C#N)c2)n[nH]c1=O	210 to 213.9 °C
Cn1c(COc2ccc(Br)c(F)c2Oc2cc(C#N)cc(C#N)c2)n[nH]c1=O	205.5 to 207 °C
Cn1c(COc2ccc(Br)c(F)c2Oc2cc(C#N)cc(CC(F)(F)F)c2)n[nH]c1=O	197.1 to 202.1 °C
CCc1cc(C#N)cc(Oc2c(OCc3n[nH]c(=O)n3C)ccc(CC)c2F)c1	164 to 166 °C
